“And” between values parts separate entries of the source, which are not always exact repeats. Equal values may be shown once.
Experiment: In vivo biodistribution of [^99mTc]Tc-carvedilol in healthy Swiss albino mice
Conditions: for [^99mTc]Tc-carvedilol percentages of injected dose per Gram organ: i.v. tail vein
Text: For biodistribution and receptor occupancy studies, 24 healthy adult Swiss albino mice (12 males and 12 females, aged 10–12 weeks, weighing 25–30 g) were obtained from the Egyptian National Research Center. Mice outside the 25–30 g weight range were excluded to ensure consistency in the biodistribution outcomes. Prior to the study, animals were housed in groups of four with ad libitum access to food and water and underwent a 2-week acclimatization period. After this adaptation phase, the mice were randomly assigned to the study groups using the lot-drawing method.
Given ^99mTc’s physical half-life of approximately 6 h, shorter imaging and sampling intervals are generally preferred to maximize radioactive signal fidelity and minimize decay-related variability. At 24 h post-injection, the residual ^99mTc activity could fall below quantifiable thresholds, potentially compromising the precision of biodistribution data. To prevent this, all data collection was restricted to early post-injection intervals—specifically […]—when radioactivity levels remain within optimal detection ranges for gamma counting. By omitting the 24 h time point altogether, the study design ensured that the radiotracer signal would be robust enough to yield statistically reliable biodistribution profiles without being confounded by the isotope’s exponential decay. Additionally, prior pilot studies were conducted to empirically determine the time window during which the radiochemical integrity and quantification signal-to-noise ratio remained analytically valid. These informed the exclusion of late-phase sampling and reinforced confidence in the reliability of kinetic data collected within the defined 6 h observation window. Therefore, six mice were euthanized at each selected time point via standardized cervical dislocation performed by trained personnel in accordance with institutional animal care guidelines. The procedure followed the AVMA Guidelines for the Euthanasia of Animals ([Kirkwood, 2013]), ensuring it was rapid, humane, and reproducible. To ensure procedural consistency, all cervical dislocations were performed by the same experienced researcher, following pre-established protocols that involved correct animal positioning, anatomical landmark identification, and verification of death through cessation of heartbeat and respiration. Immediately postmortem, body weight was recorded, and blood was collected via cardiac puncture.
Organ harvesting included the collection of the heart, liver, lungs, kidneys, spleen, stomach, intestines, muscle (right leg), bone, and brain. Following dissection, tissues were gently rinsed with isotonic saline to remove residual blood, promptly weighed, kept at low temperatures, and immediately subjected to gamma counting to preserve radiochemical integrity and avoid post-collection decay artifacts. No storage or freezing was used to prevent degradation or leakage of [^99mTc]Tc-carvedilol. Sample processing occurred in a shielded, on-site laboratory adjacent to the dissection area, ensuring minimal delay—typically less than 2 to 3 minutes—between collection and measurement.
To ensure methodological rigor and reproducibility, both experimental and computational components of the study were supported by a structured statistical framework. A total of 24 healthy albino mice (12 males, 12 females), aged 10–12 weeks and weighing 25 ± 3 g, were selected based on uniform health status, age, and weight to minimize inter-animal variability. Animals were maintained under controlled laboratory conditions (12-h light/dark cycle, standardized humidity, and temperature) with unrestricted access to food and water. For biodistribution analysis, animals were randomly assigned to four experimental groups, each consisting of six mice, each representing a distinct post-injection time point (15, 30, 60, and 120 min). […]

COc1ccccc1OCC[N]1CC(COc2cccc3[nH]c4ccccc4c23)[O][99Tc]12(=[O])[O]C(COc1cccc3[nH]c4ccccc4c13)C[N]2CCOc1ccccc1OC (racemic) [[^99mTc]Tc-carvedilol]
[^99mTc]Tc-carvedilol percentages of injected dose per Gram organ (Kidneys, 30 min post-injection): 32.753 ± 0.345 % ID/g organ and 32.753 ± 0.345 ^a % ID/g organ | [^99mTc]Tc-carvedilol percentages of injected dose per Gram organ (Kidneys, 60 min post-injection): 24.392 ± 0.345 % ID/g organ | [^99mTc]Tc-carvedilol percentages of injected dose per Gram organ (Kidneys, 120 min post-injection): 29.284 ± 0.012 % ID/g organ | Residual [^99mTc]Tc-carvedilol percentages of injected dose per Gram in non-targeted organs (Liver row, 15 min post-injection): 92.740 ± 0.03 % ID/g | Residual [^99mTc]Tc-carvedilol percentages of injected dose per Gram in non-targeted organs (Liver row, 30 min post-injection): 95.149 ± 0.01 % ID/g | Residual [^99mTc]Tc-carvedilol percentages of injected dose per Gram in non-targeted organs (Liver row, 120 min post-injection): 93.895 ± 0.04 % ID/g | [^99mTc]Tc-carvedilol percentages of injected dose per Gram organ (Liver, 15 min post-injection): 7.255 ± 0.023 % ID/g organ | [^99mTc]Tc-carvedilol percentages of injected dose per Gram organ (Liver, 30 min post-injection): 4.841 ± 0.568 % ID/g organ | [^99mTc]Tc-carvedilol percentages of injected dose per Gram organ (Liver, 120 min post-injection): 6.045 ± 1.020 % ID/g organ | Residual [^99mTc]Tc-carvedilol percentages of injected dose per Gram in non-targeted organs (Lung row, 15 min post-injection): 98.710 ± 0.01 % ID/g | Residual [^99mTc]Tc-carvedilol percentages of injected dose per Gram in non-targeted organs (Lung row, 30 min post-injection): 92.205 ± 0.01 % ID/g | Residual [^99mTc]Tc-carvedilol percentages of injected dose per Gram in non-targeted organs (Lung row, 60 min post-injection): 95.410 ± 0.00 % ID/g | Residual [^99mTc]Tc-carvedilol percentages of injected dose per Gram in non-targeted organs (Lung row, 120 min post-injection): 95.371 ± 0.04 % ID/g | [^99mTc]Tc-carvedilol percentages of injected dose per Gram organ (Lung, 15 min post-injection): 1.290 ± 0.232 % ID/g organ | [^99mTc]Tc-carvedilol percentages of injected dose per Gram organ (Lung, 30 min post-injection): 7.795 ± 0.060 % ID/g organ | [^99mTc]Tc-carvedilol percentages of injected dose per Gram organ (Lung, 60 min post-injection): 4.590 ± 0.000 % ID/g organ | [^99mTc]Tc-carvedilol percentages of injected dose per Gram organ (Lung, 120 min post-injection): 4.579 ± 0.111 % ID/g organ | Residual [^99mTc]Tc-carvedilol percentages of injected dose per Gram in non-targeted organs (Muscle row, 15 min post-injection): 99.309 ± 0.02 % ID/g | Residual [^99mTc]Tc-carvedilol percentages of injected dose per Gram in non-targeted organs (Muscle row, 30 min post-injection): 99.727 ± 0.01 % ID/g | Residual [^99mTc]Tc-carvedilol percentages of injected dose per Gram in non-targeted organs (Muscle row, 60 min post-injection): 99.321 ± 0.02 % ID/g | Residual [^99mTc]Tc-carvedilol percentages of injected dose per Gram in non-targeted organs (Muscle row, 120 min post-injection): 98.449 ± 0.03 % ID/g | [^99mTc]Tc-carvedilol percentages of injected dose per Gram organ (Muscle, 15 min post-injection): 0.671 ± 0.195 % ID/g organ | [^99mTc]Tc-carvedilol percentages of injected dose per Gram organ (Muscle, 30 min post-injection): 0.263 ± 0.215 % ID/g organ | [^99mTc]Tc-carvedilol percentages of injected dose per Gram organ (Muscle, 60 min post-injection): 0.659 ± 0.217 % ID/g organ | [^99mTc]Tc-carvedilol percentages of injected dose per Gram organ (Muscle, 120 min post-injection): 1.521 ± 0.201 % ID/g organ | Residual [^99mTc]Tc-carvedilol percentages of injected dose per Gram in non-targeted organs (Spleen row, 15 min post-injection): 98.118 ± 0.02 % ID/g | Residual [^99mTc]Tc-carvedilol percentages of injected dose per Gram in non-targeted organs (Spleen row, 30 min post-injection): 95.816 ± 0.01 % ID/g | Residual [^99mTc]Tc-carvedilol percentages of injected dose per Gram in non-targeted organs (Spleen row, 60 min post-injection): 93.319 ± 0.05 % ID/g | Residual [^99mTc]Tc-carvedilol percentages of injected dose per Gram in non-targeted organs (Spleen row, 120 min post-injection): 97.701 ± 0.02 % ID/g | [^99mTc]Tc-carvedilol percentages of injected dose per Gram organ (Spleen, 15 min post-injection): 1.852 ± 0.151 % ID/g organ | [^99mTc]Tc-carvedilol percentages of injected dose per Gram organ (Spleen, 30 min post-injection): 4.174 ± 0.019 % ID/g organ | [^99mTc]Tc-carvedilol percentages of injected dose per Gram organ (Spleen, 60 min post-injection): 6.631 ± 0.019 % ID/g organ | [^99mTc]Tc-carvedilol percentages of injected dose per Gram organ (Spleen, 120 min post-injection): 2.279 ± 0.126 % ID/g organ | Residual [^99mTc]Tc-carvedilol percentages of injected dose per Gram in non-targeted organs (Stomach row, 15 min post-injection): 98.807 ± 0.01 % ID/g | Residual [^99mTc]Tc-carvedilol percentages of injected dose per Gram in non-targeted organs (Stomach row, 30 min post-injection): 98.433 ± 0.04 % ID/g | Residual [^99mTc]Tc-carvedilol percentages of injected dose per Gram in non-targeted organs (Stomach row, 60 min post-injection): 95.706 ± 0.03 % ID/g | Residual [^99mTc]Tc-carvedilol percentages of injected dose per Gram in non-targeted organs (Stomach row, 120 min post-injection): 97.717 ± 0.06 % ID/g | [^99mTc]Tc-carvedilol percentages of injected dose per Gram organ (Stomach, 15 min post-injection): 1.193 ± 0.201 % ID/g organ | [^99mTc]Tc-carvedilol percentages of injected dose per Gram organ (Stomach, 30 min post-injection): 1.524 ± 0.259 % ID/g organ | [^99mTc]Tc-carvedilol percentages of injected dose per Gram organ (Stomach, 60 min post-injection): 4.263 ± 0.259 % ID/g organ | [^99mTc]Tc-carvedilol percentages of injected dose per Gram organ (Stomach, 120 min post-injection): 2.239 ± 0.065 % ID/g organ
